We go through six compounds from patent US11306064B2, “Benzothia(di)azepine compounds and their use as bile acid modulators” (Albireo AB, priority 2018, dated 2022).

The target in one series is T1, Human LBAT (Homo sapiens, UniProt Q14973).
T1 construct: expressed in transfected cells; kept under Geneticin selection
T1 sequence (Q14973 1-349): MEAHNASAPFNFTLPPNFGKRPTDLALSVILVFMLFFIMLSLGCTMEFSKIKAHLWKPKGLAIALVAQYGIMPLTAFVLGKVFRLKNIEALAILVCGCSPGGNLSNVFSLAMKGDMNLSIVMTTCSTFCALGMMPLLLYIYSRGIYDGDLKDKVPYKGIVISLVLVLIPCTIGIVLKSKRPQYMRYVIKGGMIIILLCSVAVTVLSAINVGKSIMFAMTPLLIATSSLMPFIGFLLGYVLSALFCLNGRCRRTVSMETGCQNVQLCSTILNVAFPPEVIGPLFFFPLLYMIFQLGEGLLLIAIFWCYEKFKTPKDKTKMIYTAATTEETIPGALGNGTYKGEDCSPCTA
Kind of series: LBAT (h/m) assay: 3H-taurocholic acid uptake in human LBAT-overexpressing cells. In kind it is cell-based. Conditions: 0.3 μM 3H-taurocholic acid and 7.5 μM cold taurocholic acid, 20 minutes, read-out: hLBAT IC50. The method in brief: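 LBAT-overexpressing cells, serum-free MEM-alpha, 20 min at 37° C with inhibitor (3-fold, 10-point) plus 0.3 μM 3H-taurocholic acid and cold taurocholic acid (7.5 μM human; 25 μM mouse), 0.2% DMSO. Stopped on ice, washed with 1 mM unlabelled taurocholate; uptake by scintillation counting.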

The subject of another series is HepaRG cells. Kind of series: HepaRG-based assay: 3H-taurocholic acid uptake in differentiated HepaRG cells. It counts as cell-based. Conditions: 0.3 μM 3H-taurocholic acid and 7.5 μM cold taurocholic acid, 30 minutes. The method in brief: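 Differentiated HepaRG cells cultured 7 days post-seeding were exposed for 30 min at 37 °C to 0.3 μM 3H-taurocholic acid plus 7.5 μM cold taurocholic acid with inhibitor (3-fold dilutions, 0.2% DMSO). Uptake was stopped on ice, washed with 1 mM unlabelled taurocholic acid, and counted by scintillation.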

A short description of series [1]: Bioavailability studies in mice. It counts as in vivo. Conditions: mouse; C57BL/6 mice; single intravenous dose 1 mg/kg vs single oral dose 10 mg/kg; plasma LC-MS/MS. As for the experimental part: C57BL/6 mice of 8-9 weeks old were used. For each test compound, two groups of 3 animals each were used. One group was administered a single intravenous dose of 1 mg/kg (vehicle 100% DMSO) through the tail vein and the other group was administered a single oral dose of 10 mg/kg through gavage needle. The group that was administered an oral dose was fasted overnight. Blood samples were collected after 0.083, 0.25, 0.5, 1, 2, 4, 6, 8 and 24 hours following intravenous administration, and after 0.25, 0.5, 1, 2, 4, 6, 8 and 24 hours following oral administration. Blood samples were taken from saphenous vein. 0.2% EDTA was used as the anticoagulant. The samples were analyzed by a discovery grade bioanalytical method developed for the estimation of test compound in plasma, using an LC-MS/MS system.

pIC50: −log10 of the molar value.

Consider `CCCCC1(CC)CN(c2ccccc2)c2cc(Br)c(O/C=C/C(=O)O)cc2S(=O)(=O)C1` (single isomer, unassigned) [Example 6, (E)-3-((7-bromo-3-butyl-3-ethyl-1,1-dioxido-5-phenyl-2,3,4,5-tetrahydro-1,5-benzothiazepin-8-yl)oxy)acrylic acid], for which the pIC50 on Human LBAT was 6.81; in the series with HepaRG cells (Homo sapiens, HepaRG), 6.09. For the same compound, in series [1], the bioavailability came to 100%.

Take `CCCCC1(CC)CN(c2ccccc2)c2cc(SC)c(O/C=C/C(=O)O)cc2S(=O)(=O)C1` (single isomer, unassigned) [Example 18, (E)-3-((3-butyl-3-ethyl-7-(methylthio)-1,1-dioxido-5-phenyl-2,3,4,5-tetrahydro-1,5-benzothiazepin-8-yl)oxy)acrylic acid]: the pIC50 at Human LBAT was 7.10; in the series on HepaRG cells (Homo sapiens, HepaRG) it was 5.90. In series [1], this compound returned a bioavailability of 35%.

On to `CCCCC1(CC)CN(c2ccccc2)c2cc(SC)c(O/C=C(\F)C(=O)O)cc2S(=O)(=O)C1` (single isomer, unassigned) [Example 43, (Z)-3-((3-butyl-3-ethyl-7-(methylthio)-1,1-dioxido-5-phenyl-2,3,4,5-tetrahydro-1,5-benzothiazepin-8-yl)oxy)-2-fluoroacrylic acid], for which the pIC50 on Human LBAT was 8.10; in the series on HepaRG cells, 6.39. Also, the bioavailability in series [1] was found to be 44%.

Regarding `CCCCC1(CC)CN(c2ccccc2)c2cc(Cl)c(O/C=C(\F)C(=O)O)cc2S(=O)(=O)C1` (single isomer, unassigned) [Example 48, (Z)-3-((3-butyl-7-chloro-3-ethyl-1,1-dioxido-5-phenyl-2,3,4,5-tetrahydro-1,5-benzothiazepin-8-yl)oxy)-2-fluoroacrylic acid], the pIC50 on Human LBAT is 8.09; with HepaRG cells, 6.59. In series [1], this compound returned a bioavailability of 18%.

For `CCCCC1(CCCC)CN(c2ccccc2)c2cc(SC)c(O/C=C(\F)C(=O)O)cc2S(=O)(=O)C1` [Example 11, (Z)-3-((3,3-dibutyl-7-(methylthio)-1,1-dioxido-5-phenyl-2,3,4,5-tetrahydro-1,5-benzothiazepin-8-yl)oxy)-2-fluoroacrylic acid], the pIC50 at Human LBAT is 7.35; in the series with HepaRG cells (Homo sapiens, HepaRG) it was 5.96. Also, the bioavailability in series [1] turned out to be 27%.

As to `CCC1(CC)CN(c2ccccc2)c2cc(SC)c(O/C=C(\F)C(=O)O)cc2S(=O)(=O)C1` [Example 44, (Z)-3-((3,3-diethyl-7-(methylthio)-1,1-dioxido-5-phenyl-2,3,4,5-tetrahydro-1,5-benzothiazepin-8-yl)oxy)-2-fluoroacrylic Acid], the pIC50 on Human LBAT is 8.04; in the series with HepaRG cells (Homo sapiens, HepaRG), 6.69. In series [1], this compound yielded a bioavailability of 100%.
